Data as given in article PMC10577883, “Design and Optimization of Novel Competitive, Non-peptidic, SARS-CoV-2 M^pro Inhibitors” (ACS Medicinal Chemistry Letters, 2023).

Columns and labels:
in vitro [1] = conditions: human, microsomes
Method: Metabolic Stability Assay
(§1) Liver Microsome Stability Assay Protocol
(§2) Human liver microsomes (HLMs, 20 mg/mL), CD-1 mouse liver microsomes (MLMs, 20 mg/mL), Sprague Dawley
(§3) rat liver microsomes (RLMs, 20 mg/mL) were purchased from Xenotech. NADPH was purchased from Sigma-
(§4) Aldrich and prepared in 10 mM stock solutions of distilled H2O (InvitrogenTM UltraPureTM). Verapamil and
(§5) diphenhydramine were both purchased from Sigma-Aldrich and served as positive controls for LM stability assays.
(§6) Test compounds and positive controls were initially dissolved in DMSO to make 10 mM stock solutions. Sample
(§7) solutions were then further diluted in 100% MeCN to 500 μM. Next, the reactions were prepared by mixing human
(§8) or mouse liver microsomes (55 μL) with potassium phosphate buffer (100 mM, 928 μL) in 1.5 mL Eppendorf tubes.
(§9) The test compounds (6.6 μL of 500 μM solution) were subsequently added to the suspensions, and the reaction
(§10) mixtures were incubated at 37 °C for 5 min. Afterward, the liver microsome reactions were initiated with 110 μL
(§11) of 10 mM NADPH and further incubated at 37 °C for the designated time course of the study. This procedure
(§12) provided experiments with a final volume of 1100 μL (0.6% organic solvent content) and a final test compound
(§13) concentration of 3 μM. Aliquots (100 μL) were removed from each reaction mixture in duplicate at 0, 5, 10, 15,
(§14) and 30 min time intervals and quenched with 100 μL of cold internal standard solution (ISTD, 2 μM
(§15) 7-ethoxy-d 5-coumarin in MeOH or MeCN). Quenched aliquots were then centrifuged at 12,500 g for 5-10 min, and
(§16) the resulting supernatants were withdrawn and placed in LC-MS vials to be analyzed by LC-MS/MS (Agilent
(§17) G6460C QQQ MS coupled with an Infinity II 1260 HPLC). Each test compound was run in tandem with positive and
(§18) negative control experiments for quality assurance. Positive control reactions were conducted at a final volume
(§19) of 550 μL for a single run of each time point. Lastly, the negative control experiment was conducted with test
(§20) compounds and liver microsomes in the absence of NADPH (150 μL) and analyzed at the 30 min time point.
(§21) Data Analysis. Each data point was analyzed in triplicate using in-between blank washes to avoid carry over and
(§22) to equilibrate the column for the subsequent runs. Averages of these triplicates for individual compounds at each
(§23) time point were then normalized to the data at 0 min, representing 100% test compound remaining or 0%
(§24) metabolism. Half-lives (t 1/2) were calculated by plotting ln of % test compound remaining versus time and
(§25) performing linear regression to determine slope.
(§26) Instrumentation and LC-MS/MS Method Development
(§27) LC-MS/MS analyses were conducted on an Agilent 1260 Infinity II HPLC equipped with an Agilent G6460 triple
(§28) quadrupole mass spectrometer (Agilent Technologies, USA). Reverse-phase HPLC separation for each compound
(§29) m) column maintained at 40 °C. The mobile phase used during analyses consisted of either MeOH-H2O (0.1% FA)
(§30) or MeCN-H2O (0.1% FA) at a flow rate of 0.5 mL/min. Each method was developed in the presence of the internal
(§31) standard (ISTD), 7-ethoxy-d 5-coumarin. Precursor and product ion detection was performed with Agilent Jet
(§32) Stream electrospray positive ionization (ESI+) in multiple reaction monitoring (MRM) mode. All MRM transitions,
(§33) MS conditions were as follows: dwell time of 100 ms; gas flow of 10 L/min; nebulizer pressure of 45 psi; delta EMV
(§34) of 200 V. Lastly, all acquired data was processed using Agilent 6460 Quantitative Analysis software.

in vitro [2] = conditions: CD-1, mouse, microsomes
Method: Metabolic Stability Assay
as §1, §2, §3, §4, §5, §6, §7, §8, §9, §10, §11, §12, §13, §14, §15, §16, §17, §18, §19, §20, §21, §22, §23, §24, §25, §26, §27, §28, §29, §30, §31, §32, §33, §34

in vitro [3] = conditions: Sprague-Dawley, rat, microsomes
Method: Metabolic Stability Assay
as §1, §2, §3, §4, §5, §6, §7, §8, §9, §10, §11, §12, §13, §14, §15, §16, §17, §18, §19, §20, §21, §22, §23, §24, §25, §26, §27, §28, §29, §30, §31, §32, §33, §34

[4] = Liver microsome metabolite identification (LC-HRMS); format: in vitro ADME
Method: Figure S15: Stability of 45 in rat liver microsomes (RLM) at 37 °C
Table S17: Stability of 43 in rat liver microsomes (RLM) at 37 °C
Time Response ratio Average RR Rel % ln
Metabolite identification
Procedure for Liver Microsome Metabolite Identification Assay: Test compounds and positive controls were dissolved in 100% DMSO to make 10 mM stock solutions. The 10 mM stock solutions of test and control […]
(1 picture or pasted object on this page, not shown here) […]
compounds were further diluted in potassium phosphate buffer (100 mM, pH 7.4) to 500 μM to ensure that the organic solvent content was < 0.2%. The liver microsome (HLM or MLM) assay was prepared in a 1.5 mL Eppendorf tube with a final volume of […] for duplicate runs. Each reaction contained phosphate buffer (374 μL), liver microsomes (550 μL), and test compound (66 μL of 500 resulting in a final concentration of 30 μM), μM for the […]
test compound. […] Aliquots (100 μL) were removed in […]
MS analysis was performed using full scan from a mass range of 100-700 m/z at 60k resolution with data dependent MS/MS and MSn programs enabled for the top 5 ions detected for each scan. Compounds are detected based on their MS1 precursor ion accurate mass m/z and identified with matching theoretical and observed accurate mass MS1 ions with interpretation of accurate mass MS/MS spectra from expected […]

[5] = tested on: SARS-CoV-2-Nluc reporter virus; assay: microbe, parasite or virus in culture; format: cell-based; conditions: Severe acute respiratory syndrome coronavirus 2; VeroE6/TMPRSS2 cells; parentheses denote 95% confidence intervals
CYP3A = tested on: CYP3A; design: method as in PMID 37171749; conditions: cited from earlier work

Compound	remaining at 5 min, 3 µM (in vitro [1]) [%]	remaining at 10 min, 3 µM (in vitro [1]) [%]	remaining at 0.25 h, 3 µM (in vitro [1]) [%]	half-life at 3 µM (in vitro [1]; HLM t1/2) [min]	half-life at 3 µM (in vitro [2]) [min]	remaining at 5 min, 3 µM (in vitro [2]) [%]	remaining at 10 min, 3 µM (in vitro [2]) [%]	remaining at 0.25 h, 3 µM (in vitro [2]) [%]	half-life at 3 µM (in vitro [3]) [min]	remaining at 5 min, 3 µM (in vitro [3]) [%]	remaining at 10 min, 3 µM (in vitro [3]) [%]	remaining at 0.25 h, 3 µM (in vitro [3]) [%]	major microsomal metabolite / metabolic route [4]	EC50 [5] [µM]	CYP3A inhibition (CYP3A)
Cn1cc(-c2cc(-c3cc(Cl)c(F)c(OCc4ccccc4Cl)c3)c(=O)n(-c3cccnc3)c2)c(=O)[nH]c1=O [Compound 4]	46.1	22.7	16.3	7.2	2.4	9.41	5.25	2.96	4.8	63.6	26.6	17.4	loss of the ortho-chlorobenzyl moiety		
Cn1cnc(Cn2c(=O)[nH]/c(=N\c3cc4cn(C)nc4cc3Cl)n(Cc3cc(F)c(F)cc3F)c2=O)n1 [Compound S-217622, ensitrelvir, reference compound]														0.23	strong CYP3A inhibitor
